According to patent publication US20240207421A1, “NERVE TARGETING PEPTIDES AND METHODS OF USE” (ALUME BIOSCIENCES, INC., priority 2020, published 2024):

Test system: excised human nerve tissue (or nerve extracts)
Assay: Phage display library screening (Example 2), NEB tissue-binding peptides: nerve tissue and nerve extracts versus muscle
Settings: unique sequence count, peptides not binding muscle extracts; for Count Excised Nerve: tissue target: excised nerve; for Count Nerve Extract: tissue target: nerve extract; for Count Neuron: tissue target: neuron
Procedure: Phage display library screens were used to identify peptides that bind to target proteins (including specific laminin trimers) that are expressed in human nerves, as described in Table 3. These screens were also carried out to identify peptides that could bind selectively to nerves versus muscle. Such peptides could therefore be useful for systemic in-vivo labeling of nerves during fluorescence assisted surgery. Specifically, m 13 phage libraries expressing 7 or 12 random amino acid peptides, or a cyclic peptide CX7C, on the N-terminus of the minor coat protein pIII (New England Biolabs; NEB) were processed through multiple rounds of selection for binding to target proteins expressed in nerves, or to excised human nerves, nerve extracts, or muscle, as described further below.
To identify peptides selective for nerves versus muscle, phage from the same libraries used for specific target proteins were used to screen against excised human nerve tissue (or nerve extracts) and human muscle tissue.
Excised Nerve Tissue: Phage were processed through multiple cycles of selection, with representative phage being isolated and sequenced after each selection cycle. Specifically, for selection using human nerve tissue, a sample of […] tissue (2 mm by 2 mm) was washed prior to mixing and incubation with a phage library. After incubation, the mixture (containing mostly intact nerves with phage particles that had variable affinity for nerves) was centrifuged and the nerve pellet washed multiple times with PBS to remove phage with little or no affinity for nerve tissue. The pellet was homogenized and plated for titering and reamplification. Phage that were bound at each round were sequenced. NextGen sequencing of pools after 2, 3 and 4 rounds of selection were used to isolate candidate sequences that were further analyzed using bioinformatics.
Nerve Extracts: Phage libraries were incubated for up to 24 hours at 4° C. in 96 well plates that had been coated with a human nerve extract. Plates were then washed with PBS and phage were eluted using 0.2M glycine pH 2.0. Phage supernatants where then neutralized with Tris pH 9.0 prior to plating on TG1 bacteria and LB agar plates. Colonies were counted to determine titer followed by DNA preparation of pools of phage and NextGen sequencing. After rounds of selection, phage were pooled and amplified for iterative selection. Phage that eluted by 0.2M glycine pH 2.0 (the nerve binders) at each round were sequenced. NextGen sequencing of pools after 2, 3 and 4 rounds of selection were used to isolate candidate sequences that were further analyzed using bioinformatics.
Muscle Tissue: Phage were processed through multiple cycles of selection, with representative phage being isolated and sequenced after each selection cycle. Specifically, for selection using human skeletal muscle tissue, a sample of skeletal muscle tissue (2 mm by 2 mm) was washed prior to mixing and incubation with a phage library. After incubation, the mixture (containing mostly intact muscle with phage particles that had variable affinity for muscle) was centrifuged and the muscle pellet washed multiple times with PBS to remove phage with little or no affinity for muscle tissue. The pellet was then homogenized and plated for titering and reamplification. Phage that were bound at each round were sequenced. NextGen sequencing of pools after 2, 3 and 4 rounds of selection were used to isolate candidate sequences that were further analyzed using bioinformatics.
For all NEB sequence datasets, a python script was used to translate, trim, and filter the peptide sequences (see details above). A python script was used to group peptides from different assays according to tissue target (muscle, nerve, neuron, or nerve extract) and combine the unique sequence counts for each peptide. […]

Row | Sequence | Count Excised Nerve | Count Nerve Extract | Count Neuron
1 | QRATNDILIRGW | 9 | 17 | 8
2 | NTEYSRYTSIWK | 8 | 14 | 6
3 | SGWHLVMSMSIG | 6 | 12 | 6
4 | EMVPMKFLMMAK | 8 | 14 | 6
5 | SLQLWNSEKVTT | 10 | 16 | 6
6 | HSGAYTIQASYK | 9 | 15 | 6
7 | YAGQNGWMRSDL | 28 | 45 | 17
8 | QANLYYWDPSDL | 8 | 17 | 9
9 | VERLNWPKRMQS | 27 | 43 | 16
10 | KTTSMTALTMGL | 9 | 21 | 12
11 | YAWDTVASRNYK | 14 | 20 | 6
12 | WDVAWLERRALH | 23 | 43 | 20
13 | VPVPKKMSLDPT | 8 | 14 | 6
14 | WEKHTGPLSRYL | 6 | 19 | 13
15 | DRGLTILTDDLR | 27 | 34 | 7
16 | WPLKRFEQLPLK | 6 | 14 | 8
17 | GWANSITYRNLY | 17 | 26 | 9
18 | SDHTFKRVMFRW | 8 | 15 | 7
19 | GLLREPDELMFL | 18 | 27 | 9
20 | GHAHSLTQNPLF | 10 | 18 | 8
21 | NYAVGDRITKNI | 18 | 25 | 7
22 | SEPIEKGSRTIV | 7 | 13 | 6

Row | Sequence | Count Excised Nerve | Count Nerve Extract | Count Neuron
23 | MLRHVDLTEPNA | 7 | 13 | 6
24 | DELVGGAPWYKS | 20 | 27 | 7
25 | GLWDGKGRIVEV | 9 | 16 | 7
26 | SSLYMNGWSRDQ | 23 | 49 | 26
27 | TLNARDQLSING (nerve-binding peptide) | 7 | 13 | 6
28 | DVMQMFHQVHFY | 10 | 17 | 7
29 | EPWQSRDKVIEE | 8 | 16 | 8
30 | AIMSYNSPWIQG | 9 | 17 | 8
31 | GWQMFPPMQNTR | 10 | 50 | 40
32 | GWNEATNSARHT | 26 | 32 | 6
33 | YSANSNPKKSLM | 11 | 17 | 6
34 | WSGGMEDNSNRL | 9 | 18 | 9
35 | LQTHSITYRHER | 7 | 19 | 12
36 | IPGQTPRMPHSK | 8 | 21 | 13
37 | DASQYPLVSGLW | 10 | 16 | 6
38 | SGEYNLIKPNLL | 20 | 27 | 7
39 | GLTIMSSRHSLQ | 12 | 18 | 6
40 | ALNHNGPVKTGL | 10 | 16 | 6
41 | VTDMLGIPKLHA | 18 | 28 | 10
42 | FDPLSRNVPHKT | 16 | 22 | 6
43 | EIIVMSGSNVTN | 9 | 15 | 6
44 | NRIGHGTATGTL | 22 | 28 | 6

Row | Sequence | Count Excised Nerve | Count Nerve Extract | Count Neuron
45 | SLGSSFVQGGEL | 12 | 19 | 7
46 | YANGIEAKDSSR | 14 | 20 | 6
47 | AFRFEFQVPDSH | 7 | 18 | 11
48 | VNYQTPWNKHWY | 10 | 21 | 11
49 | TEWMVRASSIGE | 6 | 14 | 8
50 | RTVITNEMLLLV | 7 | 13 | 6
51 | GTVSYMVKMDNN | 9 | 16 | 7
52 | NAVHRPDLNLLA | 15 | 22 | 7
53 | MLKMERPGRMAY | 9 | 15 | 6
54 | VESGHAYSVSSW | 14 | 20 | 6
55 | QSTLGVHMLRVS | 6 | 13 | 7
56 | HGIVFSKRPFSN | 12 | 23 | 11
57 | SPMANVWFNRLS | 7 | 17 | 10
58 | GMRTGDDSPKYP | 14 | 21 | 7
59 | EESNAKLELLSR | 12 | 26 | 14
60 | GTALNLQKDINK | 6 | 12 | 6
61 | WVGPDIIAQMRI | 8 | 16 | 8
62 | TSAHHDRTLAGS | 6 | 12 | 6
63 | VRSDMVSGGLQK | 14 | 20 | 6
64 | EFARFRVFGVAE | 22 | 30 | 8
65 | TDNGSFLGKLTS | 7 | 14 | 7
66 | NGMNWLQVHQLS | 12 | 18 | 6
